Reference: US20160339187A1, “DEVICES AND METHODS FOR CONTROLLED DRUG DELIVERY OF WET AEROSOLS” (THE RESEARCH FOUNDATION FOR THE STATE UNIVERSITY OF NEW YORK, priority 2014, published 2016)

What was measured:
[1] = Gamma camera deposition in patients inhaling aerosol during tidal breathing from AeroTech II nebulizers; format: in vivo, human; conditions: group of patients, AeroTech II type nebulizers
[2] = 15 normal subjects, Aeroneb nebulizer with Idehaler; cited from earlier work

| SMILES | upper airway deposition as a percentage of total deposition [1] | oropharyngeal activity (average) [2] |
| --- | --- | --- |
| N=C(N)c1ccc(OCCCCCOc2ccc(C(=N)N)cc2)cc1 [pentamidine] | ≤ 5% | – |
| NCC[C@H](O)C(=O)N[C@@H]1C[C@H](N)[C@@H](O[C@H]2O[C@H](CN)[C@@H](O)[C@H](O)[C@H]2O)[C@H](O)[C@H]1O[C@H]1O[C@H](CO)[C@@H](O)[C@H](N)[C@H]1O [amikacin] | – | 29.4±7.4% |
